The results in this text go back to ChEMBL document CHEMBL5370634, “Synthesis and Antifungal Evaluation of New Azole Derivatives against Candida albicans” (ACS Med Chem Lett, 2023).

The test system of data set [1] is Candida albicans. The data set is described as follows: Antibiofilm activity against Candida albicans SC5314 assessed as inhibition of biofilm formation at 0.15 to 0.6 ug/mL incubated for 24 hrs by crystal violet staining based inverted microscopy analysis. The class given is functional, organism-based. The following applies: dose 0.15-0.6 µg/ml.
Data set [2] has as its system Candida albicans. The data set is described as follows: Antifungal activity against Candida albicans SC5314FR assessed as fractional inhibitory concentration index incubated for 24 hrs in presence of fluconazole by microdilution method. The class given is functional.
Data set [3] relates to Candida albicans. The data set is described as follows: Antifungal activity against Candida albicans SC5314 assessed as fractional inhibitory concentration index incubated for 24 hrs in presence of fluconazole by microdilution method. The class given is functional.
Data set [4] deals with Candida albicans. The data set is described as follows: Induction of cell membrane permeability in Candida albicans SC5314 at 0.15 to 0.6 ug/mL incubated for 16 hrs by […] iodide staining based fluorescence microscopy. The data set is classed as functional, organism-based. The following applies: dose 0.15-0.6 µg/ml.
Data set [5] has as its system Candida albicans. The data set is described as follows: Antifungal activity against Candida albicans SC5314 incubated for 24 hrs by microdilution method. The data set is classed as functional. (In general: Broth dilution looks for growth in wells or tubes with falling amounts of substance.)
In data set [6] the test system is Candida albicans. The data set is described as follows: Antifungal activity against Candida albicans SC5314 incubated for 24 hrs in presence of fluconazole by microdilution method. The data set is classed as functional.
For data set [7], the system named is Candida albicans. The data set is described as follows: Antifungal activity against Candida albicans SC5314FR incubated for 24 hrs by microdilution method. The data set is classed as functional.
Data set [8] concerns Candida albicans. The data set is described as follows: Antifungal activity against Candida albicans SC5314FR incubated for 24 hrs in presence of fluconazole by microdilution method. The data set is classed as functional, SC5314.
Data set [9] deals with T1, Lanosterol 14-alpha demethylase (Candida albicans (strain SC5314 / ATCC MYA-2876) (Yeast), UniProt P10613). The data set is described as follows: Inhibition of CYP51 in Candida albicans SC5314 assessed as reduction in ergosterol content at 0.15 to 0.6 ug/mL incubated for 16 hrs by spectrophotometry analysis. The following applies: at 0.15 to 0.6 µg/mL, dose 0.15-0.6 µg/ml.

Data set [10] concerns Candida albicans. The data set is described as follows: Induction of morphological changes in Candida albicans SC5314 assessed as appearance of incomplete cell wall structure incubated for 16 hrs by TEM analysis. The data set is classed as functional, organism-based. The following applies: dose 0.15-0.6 µg/ml.
For data set [11], the system named is Candida albicans. The data set is described as follows: Induction of morphological changes in Candida albicans SC5314 assessed as appearance of obvious defects incubated for 16 hrs by TEM analysis. The following applies: dose 0.15-0.6 µg/ml. The class given is functional, organism-based.
Data set [12] has as its system Candida albicans. The data set is described as follows: Induction of morphological changes in Candida albicans SC5314 assessed as appearance of blurred boundary between cell wall and cell membrane incubated for 16 hrs by TEM analysis. The following applies: dose 0.15-0.6 µg/ml. The data set is classed as functional, organism-based.
Data set [13] has as its system Candida albicans. The data set is described as follows: Induction of morphological changes in Candida albicans SC5314 assessed as appearance of unclear cell membrane outline incubated for 16 hrs by TEM analysis. The data set is classed as functional, organism-based. The following applies: dose 0.15-0.6 µg/ml.
In data set [14] the test system is Candida albicans. The data set is described as follows: Induction of morphological changes in Candida albicans SC5314 assessed as chaotic dissolution of cytoplasm incubated for 16 hrs by TEM analysis. The class given is functional, organism-based. The following applies: dose 0.15-0.6 µg/ml.
Data set [15] has as its system Candida albicans. The data set is described as follows: Induction of morphological changes in Candida albicans SC5314 assessed as chaotic dissolution of vacuoles incubated for 16 hrs by TEM analysis. The following applies: dose 0.15-0.6 µg/ml. The class given is functional, organism-based.
The test system of data set [16] is Candida albicans. The data set is described as follows: Induction of morphological changes in Candida albicans SC5314 assessed as appearance of broken slag-like material incubated for 16 hrs by TEM analysis. The class given is functional, organism-based. The following applies: dose 0.15-0.6 µg/ml.
Data set [17] has as its system Candida albicans. The data set is described as follows: Induction of morphological changes in Candida albicans SC5314 assessed as leaking of intracellular substances incubated for 16 hrs by TEM analysis. The data set is classed as functional, organism-based. The following applies: dose 0.15-0.6 µg/ml.
Data set [18] concerns Candida albicans. The data set is described as follows: Antibiofilm activity against Candida albicans SC5314 assessed as inhibition of biofilm formation at 0.3 ug/mL incubated for 24 hrs in presence of fluconazole by crystal violet staining based inverted microscopy analysis. The class given is functional, organism-based. The following applies: dose 0.3 µg/ml.
Data set [19] concerns Candida albicans. The data set is described as follows: Induction of morphological changes in Candida albicans SC5314 assessed as appearance of loose texture incubated for 16 hrs by TEM analysis. The data set is classed as functional, organism-based. The following applies: dose 0.15-0.6 µg/ml.
Data set [20] deals with Candida albicans. The data set is described as follows: Antibiofilm activity against Candida albicans SC5314 assessed as inhibition of biofilm formation at 0.3 ug/mL incubated for 24 hrs by crystal violet staining based inverted microscopy analysis. The following applies: dose 0.3 µg/ml. The class given is functional, organism-based.
Data set [21] relates to Candida albicans. The data set is described as follows: Induction of cell membrane permeability in Candida albicans SC5314 at 0.3 ug/mL incubated for 16 hrs by […] iodide staining based fluorescence microscopy. The class given is functional, organism-based. The following applies: dose 0.3 µg/ml.
The target in data set [22] is T1, Lanosterol 14-alpha demethylase. The data set is described as follows: Inhibition of CYP51 in Candida albicans SC5314 assessed as reduction in ergosterol content at 0.3 ug/mL incubated for 16 hrs by spectrophotometry analysis. The following applies: at 0.3 µg/mL.
The test system of data set [23] is Candida albicans. The data set is described as follows: Induction of morphological changes in Candida albicans SC5314 assessed as appearance of slightly blurred cytoplasm at 0.3 ug/ml incubated for 16 hrs by TEM analysis. The class given is functional, organism-based. The following applies: dose 0.3 µg/ml.

Values after ≈ are worked out from the molar mass of the structure shown. Active and inactive are the calls of the source. The rule behind the calls is not given here. Where only a bound is given, the exact number is not on record here.

By MIC50 is commonly meant the lowest concentration that inhibits either 50% of growth or 50% of the strains tested, depending on the study.

T1 sequence (P10613 whole entry): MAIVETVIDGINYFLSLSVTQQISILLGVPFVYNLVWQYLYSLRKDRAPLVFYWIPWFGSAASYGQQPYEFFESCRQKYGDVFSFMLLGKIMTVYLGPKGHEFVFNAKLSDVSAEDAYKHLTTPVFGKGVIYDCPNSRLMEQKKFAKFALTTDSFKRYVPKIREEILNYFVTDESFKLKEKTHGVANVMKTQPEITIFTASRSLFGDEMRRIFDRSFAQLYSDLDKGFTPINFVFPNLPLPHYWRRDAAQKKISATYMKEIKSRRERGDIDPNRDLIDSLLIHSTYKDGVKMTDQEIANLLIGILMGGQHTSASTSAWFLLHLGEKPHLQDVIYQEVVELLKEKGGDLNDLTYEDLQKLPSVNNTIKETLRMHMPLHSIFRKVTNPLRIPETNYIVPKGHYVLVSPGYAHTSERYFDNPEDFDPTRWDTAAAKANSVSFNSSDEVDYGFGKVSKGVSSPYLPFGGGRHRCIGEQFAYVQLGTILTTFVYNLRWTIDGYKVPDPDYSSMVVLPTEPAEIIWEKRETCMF

For `CC(=O)N1CCN(c2ccc(OCCN(CC(O)(Cn3cncn3)c3ccc(F)cc3F)S(=O)(=O)c3ccc(Cl)cc3Cl)cc2)CC1` (stereo not given), the inhibition entry with Candida albicans [1] and in the data set with Candida albicans [18] was “Active” each time. Besides, the “fractional inhibitory concentration index (FICI)” value with Candida albicans [2] amounted to 2; in the data set with Candida albicans [3] it was 4.55. Also, the result in the data set on Candida albicans [4] was Active. In addition, the MIC50 against Candida albicans [5] is 0.02 µg/mL (≈ 0.0282 µM); with Candida albicans [6] it was 0.09 µg/mL; with Candida albicans [7], more than 200 µg/mL; in the data set with Candida albicans [8], more than 200 µg/mL. For the same compound, the “inhibition (INH)” value in [9] is “Active”. Further, the Activity entry in the data set on Candida albicans [10], in the data set with Candida albicans [11], in the data set on Candida albicans [12], in the data set with Candida albicans [13], with Candida albicans [14] and in the data set on Candida albicans [15] was “Dose-Dependent Effect” in each case. Moreover, the Activity entry in the data set with Candida albicans [16], in the data set on Candida albicans [17] and with Candida albicans [19] was “Dose-Dependent Effect” throughout.
As for `OC(Cn1cncn1)(Cn1cncn1)c1ccc(F)cc1F` [FLUCONAZOLE], the inhibition result in the data set with Candida albicans [20] was “inactive”. Also, the result in the data set with Candida albicans [21] was inactive. Further, the MIC50 with Candida albicans [5] was 1.8 µg/mL (≈ 5.88 µM); in the data set with Candida albicans [7] it was more than 200 µg/mL. In addition, the “inhibition (INH)” value in [22] is “Not Active”. In addition, the outcome in the data set on Candida albicans [23] was Active.
